In patent US20180271470A1, “METHODS FOR QUANTIFYING PANCREATIC BETA CELL FUNCTION AND MASS PROPERTIES WITH RADIOMANGANESE POSITRON EMISSION TOMOGRAPHY” (Wisconsin Alumni Research Foundation, priority 2017, published 2018):

How the values were obtained:
[1] = OLINDA dosimetry calculations for Mn-51 and daughter Cr-51; set-up: species or system human; details: OLINDA input
Description: Due to the rapid blood clearance of Mn^2+, OLINDA (Organ Level INternal Dose Assessment) dosimetry calculations were performed assuming instant compartment localization with organ activity fractions equal to those measured by ex vivo biodistribution herein. Based on the previously measured lengthy organ residence times of Mn^2+, it was also assumed that the effective organ clearance half-life (Ter) was equal to the radioactive half-life of Mn-51 (t1/2: 45.6 min). It was also assumed that Mn-51 injections were 100% radionuclidically pure. In regards to the daughter isotope, Cr-51 (t1/2: 27.7 d), it was assumed that the activity remained in same organ compartments as the parent Mn-51 biodistribution without biological clearance. Standard radiation weighting factors were used (γ=1, β=1). Based on these assumptions, effective dose (ED) and effective dose equivalent (EDE) (units of mSv/MBq) were calculated for a standard adult male and female.

[2] = tested on: pancreatic uptake of ^52Mn^2+; test: One hour biodistribution of ^52Mn^2+ in anesthetized (1% isoflurane) or awake mice; format: in vivo; details: 1% isoflurane vs awake, 1 h post injection, regardless of administration regime or glucose stimulation
Description: Previous reports have shown that most volatile anesthetics, including isoflurane, impair insulin secretion by inhibiting the deactivation of KATP channels. Plausibly, the observed decrease in pancreatic uptake of ^52Mn^2+ resulted from mice being anesthetized through the full extent of the studies during the dynamic PET scans. To investigate the impact of isoflurane anesthesia on pancreatic uptake, one hour post injection biodistribution experiments were performed under different administration conditions in either anesthetized (1% isoflurane) or awake mice.

[3] = ^52Mn^2+ PET and biodistribution in STZ type-1 diabetes model; format: in vivo, ICR mice; details: ICR female mice, single STZ 180 mg/kg IP, four days after induction
Description: Type 1 diabetes was induced in female ICR mice via a single IP injection of 180 mg/kg streptozotocin (STZ; MP Biomedical, LLC, Santa Ana, Calif.), a toxin that selectively destroys pancreatic beta cell. The injectable STZ solution (12.5 mg/mL) was prepared freshly in phosphate buffered saline (PBS). The weight of each mouse was measured daily, and blood glucose levels were recorded every other day with a glucometer (TRUEresult, Trividia Health Inc., Fort Lauderdale, Fla.) using blood samples collected from the tail vein. Mice were considered diabetic after two consecutive blood glucose readings above 250 mg/dL and were used for PET imaging studies one week after the injection of STZ. To evaluate ^52Mn^2+ pancreatic uptake on diabetic mice, 0.74 MBq (20 μCi) of activity were administered IV and static PET images recorded one hour after administration of the tracer. Ex vivo biodistribution was carried out following PET acquisition.

[4] = tested on: ^52Mn^2+ pancreatic uptake; test: Pharmacological manipulation of ^52Mn^2+ pancreatic uptake in vivo (PET and biodistribution); set-up: species or system ICR mice
Description: To investigate the specificity of ^52Mn^2+ for beta cells, a series of studies were performed where ^52Mn^2+ uptake was manipulated through the pharmacologic stimulation or inhibition of the insulin secretory pathway. In these experiments, 0.74-1.85 MBq (20-50 μCi) of ^52Mn^2+ was administered IV into either female ICR or C57BL/6J mice and static PET scans were acquired at one hour post injection. During tracer administration, mice were awake. Mice were only anaesthetized by isoflurane (1%) immediately before PET imaging.
To corroborate the correlation between ^52Mn^2+ pancreatic uptake and the mechanism of insulin release in beta cells, the insulin secretory pathways were stimulated in vivo using glucose and glibendamide (Tocris Biosciences, Bristol, UK), which promotes insulin release in beta cells via blockade of ATP-sensitive potassium channel (KATP). Mice were injected intraperitoneally (IP) with 100 μL of glucose (1 g/kg) or glucose (1 g/kg)+glibenclamide (5 mg/kg) in PBS, 15 min before the IV injection of 0.74-1.85 MBq (20-50 μCi)^52Mn^2+. Static PET scans were acquired one hour after the injection of the radiotracer, after which ex vivo biodistribution was performed.
Whole-body PET scans were acquired at one hour post injection, after which ex vivo biodistribution was performed.

[5] = tested on: isolated ob/ob mouse islets; test: Uptake of ^52Mn^2+ in isolated islets under stimulatory or inhibitory conditions; format: cell-based; details: 15 min incubation
Description: Mouse pancreatic islets were isolated by collagenase digestion. Briefly, mice were placed under shallow anesthesia and sacrificed via cervical dislocation. The mouse common bile duct was cannulized and 3-5 mL of an ice-cold solution containing type XI collagenase (0.5 mg/mL; Sigma Aldrich, St. Louis, Mo.) and bovine serum albumin (BSA; 0.2 mg/mL; Sigma Aldrich, St. Louis, Mo.) in Hank's balanced salt solution (HBSS; Invitrogen, Carlsbad, Calif.) was injected into the mouse pancreas. After inflation, the pancreas was removed, placed in a glass vial containing 5 mL of the collagenase solution, and incubated in a shaking water bath at 37° C. Samples were digested for approximately 30 min after which the digests were centrifuged at 50×g for 2 min and islet pellets were washed three times with 30 mL of an ice-cold BSA (0.2 mg/mL) in HBSS solution. The pellet was resuspended and islets handpicked into 35 mm petri dishes. Following isolation, islets were placed in RPMI1640 media supplemented with penicillin (100 U/mL; Invitrogen), streptomycin (100 μg/mL; Invitrogen), and FBS [10% (wt/vol); Sigma] and incubated overnight at 37° C. in a 5% CO2 atmosphere.
The uptake of ^52Mn^2+ by murine islets of Langerhans was determined under several stimulatory or inhibitory conditions. Batches of 50 islets were transferred into 0.45 μm filtered bottom 1 mL centrifuge vials (Thermo Fisher Scientific, Grand Island, N.Y.), 500 μL of Krebs-Ringer buffer (KRB: 118 mM NaCl, 5.4 mM KCl, 2.4 mM CaCl, 1.2 mM MgSO4, 1 mM […], 20 mM HEPES; pH 7.4) containing a low glucose concentration (1 mM D-glucose) were added and the islets incubated for 30 min at 37° C. After removing the supernatant following centrifugation at 50×g for 5 min, 250 μL of KRB containing glucose, diazoxide (50 μM; Tocris Biosciences, Bristol, UK), or tolbutamide (250 μM; Selleckchem, Houston, Tex.) were added, and the vials were spiked with 370 kBq (10 μCi) of ^52Mn^2+. After 15 min of incubation, the solutions were filtered and islets were washed three times with KRB. The ^52Mn^2+ radioactivity in the islet pellets were measured in an automated gamma counter (Perkin Elmer).

[51Cr] [Cr-51]
Number of disintigrations, Total Body ([1]; Total Body): 7.20E+02 MBq-h/MBq | Number of disintigrations, Adrenals ([1]; source organ Adrenals): 0.00E+00 MBq-h/MBq | Number of disintigrations, Brain ([1]; source organ Brain): 3.93E+00 MBq-h/MBq | Number of disintigrations, Breasts ([1]; source organ Breasts): 0.00E+00 MBq-h/MBq | Number of disintigrations, Cortical Bone ([1]; source organ Cortical Bone): 7.48E−01 MBq-h/MBq | Number of disintigrations, Gallbladder Contents ([1]; source organ Gallbladder Contents): 0.00E+00 MBq-h/MBq | Number of disintigrations, Heart Contents ([1]; source organ Heart Contents): 0.00E+00 MBq-h/MBq | Number of disintigrations, Heart Wall ([1]; source organ Heart Wall): 2.10E+01 MBq-h/MBq | Number of disintigrations, Kidneys ([1]; source organ Kidneys): 6.12E+01 MBq-h/MBq | Number of disintigrations, LLI ([1]; source organ LLI): 0.00E+00 MBq-h/MBq | Number of disintigrations, Liver ([1]; source organ Liver): 5.58E+01 MBq-h/MBq | Number of disintigrations, Lungs ([1]; source organ Lungs): 1.49E+01 MBq-h/MBq | Number of disintigrations, Muscle ([1]; source organ Muscle): 1.93E+00 MBq-h/MBq | Number of disintigrations, Ovaries ([1]; source organ Ovaries): 0.00E+00 MBq-h/MBq | Number of disintigrations, Pancreas ([1]; source organ Pancreas): 3.64E+01 MBq-h/MBq | Number of disintigrations, Red Marrow ([1]; source organ Red Marrow): 0.00E+00 MBq-h/MBq | Number of disintigrations, Small Intestine ([1]; source organ Small Intestine): 0.00E+00 MBq-h/MBq | Number of disintigrations, Spleen ([1]; source organ Spleen): 8.12E+00 MBq-h/MBq | Number of disintigrations, Stomach ([1]; source organ Stomach): 1.23E+01 MBq-h/MBq | Number of disintigrations, Testes ([1]; source organ Testes): 0.00E+00 MBq-h/MBq | Number of disintigrations, Thymus ([1]; source organ Thymus): 0.00E+00 MBq-h/MBq | Number of disintigrations, Thyroid ([1]; source organ Thyroid): 0.00E+00 MBq-h/MBq | Number of disintigrations, Trabecular Bone ([1]; source organ Trabecular Bone): 0.00E+00 MBq-h/MBq | Number of disintigrations, ULI ([1]; source organ ULI): 5.70E+00 MBq-h/MBq | Number of disintigrations, Urinary Bladder Contents ([1]; source organ Urinary Bladder Contents): 0.00E+00 MBq-h/MBq | Number of disintigrations, Uterus/Uterine Wall ([1]; source organ Uterus/Uterine Wall): 0.00E+00 MBq-h/MBq

FC(F)OC(Cl)C(F)(F)F (centres unmarked) [Isoflurane]
effect on accumulation of ^52Mn^2+ in the pancreas [2]: significantly inhibited

CN(N=O)C(=O)N[C@@H]1[C@@H](O)[C@H](O)[C@@H](CO)O[C@@H]1O [STZ, reference compound]
blood glucose after induction [3]: > 250 mg/dL

CC1=NS(=O)(=O)c2cc(Cl)ccc2N1 [diazoxide, 7-Chloro-3-methyl-4H-1,2,4-benzothiadiazine 1,1-dioxide]
decline in ^52Mn^2+ pancreatic uptake vs control ([4]; 20 mg/kg IP 10-15 min before IV ^52Mn^2+ bolus, PET 1 h post injection): 44% | pancreatic ^52Mn^2+ uptake after drug (PET quantification) ([4]; 20 mg/kg IP 10-15 min before IV ^52Mn^2+ bolus, PET 1 h post injection, control 5.13±0.36 SUV): 2.85±0.92 SUV | effect on PET signal within the pancreas ([4]; 20 mg/kg IP before ^52Mn^2+ bolus): significant (P<0.0001) abrogation | effect on glucose-stimulated ^52Mn^2+ uptake by islets ([5]; diazoxide 50 μM added to 10 mM glucose): blocked

COc1ccc(Cl)cc1C(=O)NCCc1ccc(S(=O)(=O)NC(=O)NC2CCCCC2)cc1 [glibenclamide]
effect on pancreatic SUV values ([4]; glibenclamide 5 mg/kg IP (with glucose 1 g/kg) 15 min before ^52Mn^2+, 1 h post injection): significant enhancement

OC[C@H]1OC(O)[C@H](O)[C@@H](O)[C@@H]1O (some centres unmarked) [glucose]
effect on ^52Mn^2+ uptake by islets ([5]; 10 mM glucose vs 1 mM glucose): significantly enhanced

CCCCNC(=O)NS(=O)(=O)c1ccc(C)cc1 [tolbutamide]
effect on ^52Mn^2+ retention by islets ([5]; glucose and tolbutamide 250 μM): significantly higher
